In US10428028B2, “HDAC inhibitors” (BIOMARIN PHARMACEUTICAL INC., priority 2013, dated 2019):
Like-named read-outs stand apart in the source and are kept apart here.

What was measured:
[1] = Acid stability determination; assay type: physicochemical; conditions: 0.01 M HCl, 50° C., 100 μM
Procedure: A 100 μM solution of test compound was prepared by dilution of a 10 mM DMSO stock solution in a 0.01 M solution of HCl in deionized water. Immediately after mixing, an aliquot (100 μL) was sampled and analyzed by HPLC/UV. The area under the compound peak was determined and used as the time zero reference point. The remainder of the acid sample was incubated at 50° C. and samples were taken after 2, 4, and 24 hours of incubation. On a few occasions, samples were taken at 30 rather than 24 hours. These were analyzed by the same HPLC/UV method and the area of the peak corresponding to the test compound was measured. Percent remaining at a given time point was then calculated as the ratio of the area under the peak after incubation to that at time zero times 100. In those cases where a 30 hour time point was recorded, the percent remaining at 24 hours was obtained by interpolation of the percent remaining versus time curve assuming a unimolecular process, i.e. a monoexponential decay. Percent remaining after 24 hours incubation are presented in Table 5 below, where A corresponds to more than 60%, B is between 40 and 60%, C covers 20 to 40% and D means less than 20%.

HDAC3/NcoR2 = HDAC3/NcoR2 (Homo sapiens (Human), UniProt O15379); assay: HDAC enzyme inhibition assay (Fluor-de-Lys), HDAC3/NcoR2; assay type: biochemical; conditions: HDAC3/NcoR2, 2 hours pre-incubation
HDAC3/NcoR2, sequence (O15379 whole entry): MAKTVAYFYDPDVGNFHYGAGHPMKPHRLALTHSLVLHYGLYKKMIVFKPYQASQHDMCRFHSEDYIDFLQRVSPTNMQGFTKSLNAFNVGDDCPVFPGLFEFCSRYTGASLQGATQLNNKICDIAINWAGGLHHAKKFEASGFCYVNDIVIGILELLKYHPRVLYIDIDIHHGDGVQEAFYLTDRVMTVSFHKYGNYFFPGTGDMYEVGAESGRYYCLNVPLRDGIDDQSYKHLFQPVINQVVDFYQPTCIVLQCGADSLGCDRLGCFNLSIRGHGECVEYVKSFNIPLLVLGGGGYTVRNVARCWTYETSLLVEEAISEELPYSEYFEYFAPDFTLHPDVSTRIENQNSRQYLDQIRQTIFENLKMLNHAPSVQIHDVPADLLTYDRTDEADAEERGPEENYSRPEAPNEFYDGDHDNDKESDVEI
HDAC3/NcoR2, sequence (Q9Y618 395-489 partner): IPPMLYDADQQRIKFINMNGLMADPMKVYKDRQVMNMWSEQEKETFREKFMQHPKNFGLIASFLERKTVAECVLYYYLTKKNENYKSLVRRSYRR
Procedure: (§1) The HDAC activity inhibition assay was performed as follows to determine the ability of a test compound to inhibit HDAC enzymatic activity. Serial dilutions of HDAC inhibitors were prepared in HDAC assay buffer (25 mM Tris/HCl, pH 8.0, 137 mM NaCl, 2.7 mM KCl, 1 mM MgCl2, pH 8) in 96-well assay plates (Fisher scientific, #07-200-309) and were pre-incubated for 2 hours at room temperature in the presence of 125 μg/ml BSA and purified HDAC1 (BPS Bioscience, San Diego, Calif., #50051), HDAC2 (BPS Bioscience, #50053), or HDAC3/NcoR2 (BPS Bioscience, #50003) at concentrations of 1.25, 1.32, and 0.167 μg/mL, respectively. Following pre-incubation, Fluor-de-Lys™ substrate (Enzo Life Sciences, Plymouth Meeting, Pa., BML-KI104-0050) was added to a final concentration of 10 μM and plates were further incubated for 30 minutes at room temperature. The enzymatic reaction was stopped by addition of Trichostatin A (Sigma-Aldrich, St Louis, Mo., #T8552, final concentration: 100 nM) and trypsin (MP Biomedicals, Solon, Ohio, #02101179) was added to reach a final concentration of 100 μg/mL. After a 15 minute incubation at room temperature, fluorescence was recorded using a Spectramax M2 fluorometer (Molecular Devices, Sunnyvale, Calif.) with excitation at 365 nm and emission at 460 nm. IC50 values were calculated by using a sigmoidal dose-response (variable slope) equation in GraphPad Prism® 5 for Windows (GraphPad Software, La Jolla, Calif.). Results for selected compounds in the HDAC activity inhibition assay are presented in Table 5 (IC50 ranges: IA>20 μM, A<1 μM, 1<B<5 μM, 5<C<10 μM, 10<D<20 μM, ND: not determined).

[2] = Hepatocyte stability and metabolism (parent remaining, acid and OPD formation); assay type: in vitro ADME; conditions: human hepatocytes; for % left 6H Hum hep: 5 μM; for OPD: OPD formation by LC-MS/MS after phenylglyoxal derivatisation
Procedure: The inventors have found, however, that formula (I) compound metabolites are substantially free of OPD when formula (I) compounds are subjected to conditions intended to mimic in vivo metabolism pathways. As used herein, the term “substantially free of OPD” means that OPD was not detected by LC-MS/MS after (i) incubating a formula (I) compound with human, monkey, dog and rat hepatocytes and (ii) treating the metabolite milieu with an acidic solution of phenylglyoxal in an organic solvent (this addition leads to quantitative formation of 2-phenylquinoxaline, which can be easily quantified with a low lower limit of quantitation (LLOQ)). See the Examples section.
To assess the stability and metabolism of RGFP compounds and to quantify the metabolites in hepatocytes. This assay was designed to evaluate the metabolism of RGFP compounds, following their incubation with human, monkey, dog and rat hepatocytes by monitoring either parent drug disappearance or metabolite appearance using LC-MS/MS. The results are shown in Table 5 ((% Left in Hep: IA<10%, 50%<A, 50%>B>30%, 30%>C>10%, ND: not determined).
Procedure: Turn on the water-bath heater to 37° C. Take out the KHB buffer and make sure it is at room temp before use. Prepare 2.5 mM concentration of RGFP compound in DMSO stock. Add 10 μL of above DMSO stock to 2490 μL KHB buffer; final concentration of RGFP compound will be 10 μM. Pre-warm 45 ml InVitro HT Medium to 37° C. in a sterile 50 ml conical tube. Add 1.0 mL Torpedo Antibiotic Mix per 45 mL InVitro HT medium. Transfer 13 mL of warm HT medium with Antibiotic Mix into a 15 mL conical tube. Carefully remove the hepatocyte vials from liquid nitrogen (liquid phase). Immediately immerse the vial into a 37° C. water bath. Shake gently until the ice melts entirely. […] Immediately empty contents of the vial into 13 ml of pre-warmed InVitro HT Medium with antibiotics. Rinse the vial with the HT media just transferred the hepatocytes to, in order to ensure complete transfer. Centrifuge the cell suspension at 600 RPM for 5 minutes at room temperature. […] Add 1.0 ml of KHB (at room temperature) buffer to the tube of hepatocyte pellet. Loosen the cell pellet by gently swirling the centrifuge tube. Transfer 100 μL of above solution to a different tube and add 900 μL of KHB buffer to count the cells. Determine the total cell count and the number of viable cells using the Trypan Blue exclusion method. Once the cell count is obtained, multiply the number by 10 (attributing to the dilution factor). Add required volume of KHB buffer to the tube containing hepatocytes such that the final count will be 2 million cells/mL. Dispense 50 μL of 2 million cells/ml to a 96 well plate and then add 50 μl of DMSO stock to respective wells (such that, the concentration of RGFP compounds is 5 μM and number of cells are 100000 in each well). Place the plates on a shaker in a 37° C. incubator with 5% CO2. Separate plates for each time point are advisable (Time points: 0 h, 1 h, 2 h, and 6 h). After each time point, add 100 μL of quenching solution. Quenching solution is an acetonitrile solution containing RGFP531 (10 μM) internal standard, 0.1% formic acid and phenylglyoxol (400 μM). The formic acid and phenylglyoxal is used for the identification and quantification of OPD as mentioned above. Pipette up and down a few times to ensure a complete stop of reaction. Transfer all the solution into a 1.5 ml tube, vortex thoroughly, and centrifuge at 14000 RPM at 4° C. for 5 minutes to precipitate cell debris. Transfer the 150 μL of supernatant to vials for analysis on LC-MS/MS.
LC-MS/MS parameters for RGFP compounds and metabolites including OPD: LC-MS/MS Parameters for API 2000 QTrap: System: HPLC 1100; Column: Gemini C18, 5 μM 4.6×50 mm; Column Temp: Ambient; MS: API 2000 QTrap (MI mode); Mobile Phase A: HPLC water with 0.05% Formic Acid; Mobile Phase B: Acetonitrile with 0.05% Formic Acid.

HDAC2 = HDAC2 (Homo sapiens (Human), UniProt Q92769); assay: HDAC enzyme inhibition assay (Fluor-de-Lys), HDAC2; assay type: biochemical; conditions: 2 hours pre-incubation
HDAC2, sequence (Q92769 whole entry): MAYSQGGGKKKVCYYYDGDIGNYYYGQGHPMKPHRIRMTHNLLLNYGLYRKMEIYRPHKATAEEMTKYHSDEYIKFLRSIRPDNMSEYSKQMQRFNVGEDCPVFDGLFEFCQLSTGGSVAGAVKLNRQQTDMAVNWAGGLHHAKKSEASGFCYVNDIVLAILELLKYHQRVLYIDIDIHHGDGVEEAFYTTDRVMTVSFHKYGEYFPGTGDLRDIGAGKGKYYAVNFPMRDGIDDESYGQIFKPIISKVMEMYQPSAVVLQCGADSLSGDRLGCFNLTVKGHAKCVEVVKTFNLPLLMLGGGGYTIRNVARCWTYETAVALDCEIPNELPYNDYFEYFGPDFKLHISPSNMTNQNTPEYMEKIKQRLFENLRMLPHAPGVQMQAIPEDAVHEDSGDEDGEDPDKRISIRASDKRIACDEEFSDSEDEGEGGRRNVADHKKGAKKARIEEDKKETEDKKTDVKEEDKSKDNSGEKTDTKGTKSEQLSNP
Procedure: as §1

[3] = Brain penetration studies; assay type: in vivo; conditions: C57/BL6/J, mouse; mice, s.c. 5 or 50 mg/kg or i.v. 5 mg/kg; Cmax(brain)/Cmax(plasma); read-out: BPR (brain/plasma ratio)
Procedure: Test compounds were prepared at either 0.5 mg/ml or 5 mg/ml in 30% hydroxypropyl-β-cyclodextrin, 100 mM sodium acetate pH 5.5, 5% DMSO. C57/BL6/J mice were dosed s.c. at 5 mg/kg or 50 mg/kg, or i.v. at 5 mg/kg. Animals were euthanized at pre-dose, 5, 15, 30 min, 1, 2 and 4 hours post-dose and plasma and brain obtained. Three animals per dose per time points were used. The levels of compound in the plasma and brain were determined by standard LC/MS/MS methods. Brain/plasma ratio (BPR) was calculated as the ratio of the Cmax(brain)/Cmax(plasma). The results are shown in Table 5, where IA corresponds to a BPR less than 0.1, D is between 0.1 and 0.2, C is 0.2 to 0.5, B comprises 0.5 to 1 and A is greater than 1.

HDAC1 = HDAC1 (Homo sapiens (Human), UniProt Q13547); assay: HDAC enzyme inhibition assay (Fluor-de-Lys), HDAC1; assay type: biochemical; conditions: 2 hours pre-incubation
HDAC1, sequence (Q13547 whole entry): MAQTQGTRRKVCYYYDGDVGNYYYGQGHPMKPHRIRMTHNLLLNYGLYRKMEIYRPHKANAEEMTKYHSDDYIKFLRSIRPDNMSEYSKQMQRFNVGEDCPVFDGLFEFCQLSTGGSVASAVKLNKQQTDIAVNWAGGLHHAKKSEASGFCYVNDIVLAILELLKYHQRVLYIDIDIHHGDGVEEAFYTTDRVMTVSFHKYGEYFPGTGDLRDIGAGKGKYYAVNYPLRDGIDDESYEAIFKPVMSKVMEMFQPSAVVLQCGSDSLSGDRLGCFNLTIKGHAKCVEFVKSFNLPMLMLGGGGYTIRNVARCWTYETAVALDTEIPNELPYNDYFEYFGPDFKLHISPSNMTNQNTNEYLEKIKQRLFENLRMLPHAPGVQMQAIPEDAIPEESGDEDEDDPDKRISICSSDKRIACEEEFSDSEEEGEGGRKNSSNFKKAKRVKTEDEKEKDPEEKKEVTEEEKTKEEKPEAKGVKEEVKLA
Procedure: as §1

[4] = rats, subcutaneous, cited from earlier work
[5] = set-up: dose or concentration left out as unconfirmed; conditions: male rats, oral, 78 weeks, cited from earlier work

Row | Acid Stability % Left 24 hr [1] | IC50 (HDAC3/NcoR2) [µM] | % left 6H Hum hep [2] | OPD [2] | IC50 (HDAC2) [µM] | Kp [3] | IC50 (HDAC1) [µM] | SMILES | tumors ([4]; 45 mg/kg every second day for 11 months) | tumors ([4]; 90 mg/kg every second day for 5 months) | rats with liver tumors ([5]; 8000 low dose) | rats with liver tumors ([5]; 16000 high dose)
1 | C (C covers 20 to 40%) | < 1 | C (30%>C>10%) | No OPD | < 1 | > 1 | < 1 | Nc1cc(F)ccc1NC(=O)c1ccc2c(cnn2Cc2ccc(F)c(F)c2)c1 [Compound A10] |  |  |  | 
2 | B (B is between 40 and 60%) | < 1 | B (50%>B>30%) | No OPD | < 1 | 0.2 to 0.5 | < 1 | Nc1ccccc1NC(=O)c1ccc2c(cnn2CC2CC2)c1 [Compound A11] |  |  |  | 
3 |  |  |  |  |  |  |  | Nc1ccccc1N [OPD, o-phenylenediamine] | not detected | not detected | 5 out of 17 | 5 out of 16
